# Reference: patent publication US11033527B2, “Non-hormonal treatment of the genitourinary syndrome of menopause” (IMMUGEN PHARMA LLC, priority 2018, dated 2021)
# Several values for one entry are separate records, joined by “and”; a condition that tells them apart may be missing. Equal entries are not always repeated.
# Columns and labels:
# [1] = biological target: endocannabinoid receptor type 2 (CB2) (Homo sapiens, UniProt P34972); details: cited from earlier work
# [2] = test system: vaginal tissue construct; test: microarray analysis of differential gene expression (Affymetrix Human Gene 1.0 ST arrays), tissues treated for seven days via culture medium; type: cell-based
# Text: The data from the Affymetrix Human Gene 1.0 ST arrays were normalized using the Robust Multiarray Average (RMA) algorithm and a Chip Definition File (CDF) that maps the probes on the array to unique Entrez Gene identifiers. The result is a matrix in which each column corresponds to a sample. The expression values are log 2-transformed by default.
# By using a fold change >1.5, an analysis of differentially expressed genes was done to identify those genes which were involved in the cornified envelope, keratinocyte differentiation, cell differentiation, epidermis development, epithelial cell differentiation, junctional proteins and signaling, immune response and innate immune response.
# [3] = down-regulated by this fold, given without sign
# Chain of endocannabinoid receptor type 2 (CB2) (P34972 whole entry, species assumed): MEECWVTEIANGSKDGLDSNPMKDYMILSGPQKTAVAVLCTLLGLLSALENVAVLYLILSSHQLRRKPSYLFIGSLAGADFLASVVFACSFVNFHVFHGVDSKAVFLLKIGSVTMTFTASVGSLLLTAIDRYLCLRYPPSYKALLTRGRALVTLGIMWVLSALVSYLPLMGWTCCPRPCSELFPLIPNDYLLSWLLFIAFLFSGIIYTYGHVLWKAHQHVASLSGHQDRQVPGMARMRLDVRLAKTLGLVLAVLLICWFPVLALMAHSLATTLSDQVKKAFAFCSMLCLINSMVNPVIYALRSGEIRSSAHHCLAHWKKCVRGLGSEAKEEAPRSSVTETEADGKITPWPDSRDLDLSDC
compound,measurement,setting,value
CCCC(C)(C)c1ccc2c(c1)OC(C)(C)[C@@H]1CC=C(C)C[C@@H]21 [JWH-133],agonist type by receptor internalization,[1],full agonist
same,SPRR2D Fold Change,[2],2.839 fold
same,WFDC12 Fold Change,[2],5.534 fold
same,CFB down-regulation,[2]; [3],2.167 fold
same,CFH down-regulation,[2]; [3],1.681 fold
same,AGR2 Fold Change,[2]; gene Anterior gradient homolog 2 (Xenopus laevis),−2.5 fold
same,CXCL8 Expr Fold Change,[2]; gene C-X-C motif chemokine ligand 8,−2.155 fold
same,CXCL17 Expr Fold Change,[2]; gene C-X-C motif chemokine ligand 17,−1.881 fold
same,CXCR2 Expr Fold Change,[2]; gene C-X-C motif chemokine receptor 2,2.121 fold
same,CD14 Expr Fold Change,[2]; gene CD14 molecule,−2.286 fold
same,CD74 Expr Fold Change,[2]; gene CD74 molecule,−1.676 fold
same,CD151 Expr Fold Change,[2]; gene CD151 molecule (Raph blood group),−1.653 fold
same,CD244 Expr Fold Change,[2]; gene CD244 molecule,2.489 fold
same,CDSN Fold Change,[2]; gene Corneodesmosin,6.888 fold
same,CCL28 Expr Fold Change,[2]; gene C−C motif chemokine ligand 28,−2.39 fold
same,FYB1 Expr Fold Change,[2]; gene FYN binding protein 1,−2.398 fold
same,IFNE Fold Change,[2]; gene Interferon Epsilon,4.439 fold
same,IL19 Fold Change,[2]; gene Interleukin 19,−2.2 fold
same,NLRP10 Fold Change,[2]; gene NLR family pyrin domain containing 10,10.11 fold
same,RNAse7 Fold Change,[2]; gene RNAse family,6.145 fold
same,TIAM1 Expr Fold Change,[2]; gene T cell lymphoma invasion and metastasis 1,2.018 fold
same,TNFAIP8 Expr Fold Change,[2]; gene TNF alpha induced protein 8,−1.724 fold
same,TNFRSF10C Expr Fold Change,[2]; gene TNF receptor superfamily member 10c,−2.114 fold
same,TNFRSF11B Expr Fold Change,[2]; gene TNF receptor superfamily member 11b,−2.006 fold
same,TSPAN1 Fold Change,[2]; gene Tetraspanin 1,−1.9 fold
same,TGM1 Fold Change,[2]; gene Transglutaminase 1,1.809 fold
same,TGM3 Fold Change,[2]; gene Transglutaminase 3,23.784 fold and 24 fold
same,TGM5 Fold Change,[2]; gene Transglutaminase 5,2.346 fold
same,TRIM31 Fold Change,[2]; gene Tripartite motif-containing 31,−4.5 fold
same,VTCN1 Expr Fold Change,[2]; gene V-set domain containing T cell activation inhibitor 1,−2.694 fold
same,WFDC2 Fold Change,[2]; gene WAP four-disulfide core domain 2,−2.6 fold
same,WFDC5 Fold Change,[2]; gene WAP four-disulfide core domain 5,2.807 fold
same,ALOX12B Fold Change,"[2]; gene arachidonate 12-lipoxygenase, 12R type",6.023 fold
same,ALOX12 Fold Change,[2]; gene arachidonate 12-lipoygenase,1.8 fold
same,ALOXE3 Fold Change,[2]; gene arachidonate lipoxygenase 3,2.881 fold
same,ASS1 Fold Change,[2]; gene arginosuccinate synthetase 1,−2.4 fold
same,CLDN17 Fold Change,[2]; gene claudin 17,8.7 fold
same,CCDC59 Expr Fold Change,[2]; gene coiled-coil domain containing 59,−1.956 fold
same,CSF2RB Expr Fold Change,[2]; gene colony stimulating factor 2 receptor beta common subunit,2.595 fold
same,CFH Expr Fold Change,[2]; gene complement factor H,−1.681 fold
same,CNFN Fold Change,[2]; gene cornifelin,1.706 fold
same,CRCT1 Fold Change,[2]; gene cysteine-rich C-terminal 1,2.3 fold
same,DMKN Fold Change,[2]; gene dermokine,2.043 fold
same,DCS3 Fold Change,[2]; gene descmocollin 3,1.5 fold
same,DSC1 Fold Change,[2]; gene desmocollin 1,6.69 fold
same,DSC2 Fold Change,[2]; gene desmocollin 2,1.6 fold
same,DSG1 Fold Change,[2]; gene desmoglein 1,7.572 fold and 7.2 fold
same,FLG Fold Change,[2]; gene filaggrin,3.151 fold
same,FLG2 Fold Change,[2]; gene filaggrin family member 2,6.801 fold
same,GYS2 Fold Change,[2]; gene glycogen synthase 2 (liver),3.1 fold
same,KPRP Fold Change,[2]; gene human keratinocyte proline rich protein,17.392 fold and 20.8 fold
same,IFIT5 Expr Fold Change,[2]; gene interferon induced protein with tetratricopeptide repeats 5,−1.97 fold
same,IFIH1 Expr Fold Change,[2]; gene interferon induced with helicase C domain 1,−2.099 fold
same,IRF1 Expr Fold Change,[2]; gene interferon regulatory factor 1,−3.083 fold
same,IRF9 Expr Fold Change,[2]; gene interferon regulatory factor 9,−1.62 fold
same,IL1RL2 Expr Fold Change,[2]; gene interleukin 1 receptor like 2,2.54 fold
same,IL7R Expr Fold Change,[2]; gene interleukin 7 receptor,−2.062 fold
same,IL18BP Expr Fold Change,[2]; gene interleukin 18 binding protein,1.523 fold
same,IL23A Expr Fold Change,[2]; gene interleukin 23 subunit alpha,2.346 fold
same,IL33 Expr Fold Change,[2]; gene interleukin 33,−3.314 fold
same,IL36A Expr Fold Change,[2]; gene interleukin 36 alpha,4.253 fold
same,IL36RN Expr Fold Change,[2]; gene interleukin 36 receptor antagonist,4.029 fold
same,KLK6 Fold Change,[2]; gene kallikrein related peptidase 6,4.063 fold
same,KLK8 Fold Change,[2]; gene kallikrein related peptidase 8,1.504 fold
same,KLK10 Fold Change,[2]; gene kallikrein related peptidase 10,2.214 fold
same,KLK12 Fold Change,[2]; gene kallikrein related peptidase 12,3.882 fold
same,KLK13 Fold Change,[2]; gene kallikrein related peptidase 13,3.278 fold
same,KRT1 Fold Change,[2]; gene keratin 1,7.122 fold and 8.7 fold
same,KRT2 Fold Change,[2]; gene keratin 2,1.764 fold
same,KRT20 Fold Change,[2]; gene keratin 20,−2.992 fold
same,KRT23 Fold Change,[2]; gene keratin 23,1.631 fold
same,KRT24 Fold Change,[2]; gene keratin 24,1.699 fold
same,KRTDAP Fold Change,[2]; gene keratinocyte differentiation associated protein,9.891 fold and 10.1 fold
same,LCE1A Fold Change,[2]; gene late cornified envelope 1A,1.526 fold
same,LCE1C Fold Change,[2]; gene late cornified envelope 1C,2.292 fold
same,LCE1F Fold Change,[2]; gene late cornified envelope 1F,1.576 fold
same,LCE2A Fold Change,[2]; gene late cornified envelope 2A,4.097 fold
same,LCE2B Fold Change,[2]; gene late cornified envelope 2B,7.398 fold
same,LCE2C/LCE2D Fold Change,[2]; gene late cornified envelope 2D,10.393 fold
same,LCE3D Fold Change,[2]; gene late cornified envelope 3D,12.6 fold
same,LCE3E Fold Change,[2]; gene late cornified envelope 3E,13.5 fold
same,LCE5A Fold Change,[2]; gene late cornified envelope 5A,1.571 fold
same,LIPM Fold Change,[2]; gene lipase family member M,6.813 fold
same,LIPN Fold Change,[2]; gene lipase family member N,4.766 fold
same,LIPN1 Fold Change,[2]; gene lipin 1,3.23 fold
same,LOR Fold Change,[2]; gene loricrin,5.085 fold
same,LY6G6C Expr Fold Change,[2]; gene lymphocyte antigen 6 family member G6C,5.531 fold
same,HLA-C Expr Fold Change,"[2]; gene major histocompatibility complex, class C",−1.5 fold
same,HLA-B Expr Fold Change,"[2]; gene major histocompatibility complex, class I, B",−1.677 fold
same,HLA-DRA Expr Fold Change,"[2]; gene major histocompatibility complex, class II, DR alpha",−1.875 fold
same,HLA-DRB6 Expr Fold Change,"[2]; gene major histocompatibility complex, class II, DR beta 6 (pseudogene)",−1.5 fold
same,ME1 Fold Change,"[2]; gene malic enzyme 1, NADP(+)-dependent cytosolic",2.4 fold
same,MUCL1 Fold Change,[2]; gene mucin like 1,1.4 fold
same,NCR3LG1 Expr Fold Change,[2]; gene natural killer cell cytotoxicity receptor 3 ligand 1,2.076 fold
same,NFAT5 Expr Fold Change,[2]; gene nuclear factor of activated T cells 5,1.924 fold
same,OLFM4 Expr Fold Change,[2]; gene olfactomedin 4,−3.505 fold
same,PNLIPRP3 Fold Change,[2]; gene pancreatic lipase-related protein 3,1.4 fold
same,PLA2G2F Fold Change,[2]; gene phospholipase A2 group IIF,1.564 fold
same,PLA2G3 Fold Change,[2]; gene phospholipase A2 group III,1.953 fold
same,PLA2G4D Fold Change,[2]; gene phospholipase A2 group IVD,3.604 fold
same,PLA2G4E Fold Change,[2]; gene phospholipase A2 group IVE,2.225 fold
same,PLA2G10 Fold Change,[2]; gene phospholipase A2 group X,−2.819 fold
same,PLAC8 Fold Change,[2]; gene placenta-specific 8,−2.2 fold
same,PIGR Fold Change,[2]; gene polymeric immunoglobulin receptor,−1.8 fold
same,PDCD1LG2 Expr Fold Change,[2]; gene programmed cell death 1 ligand 2,−1.879 fold
same,RPS15A Expr Fold Change,[2]; gene ribosomal protein S15a,−1.999 fold
same,SERPINB12 Fold Change,[2]; gene serpin family B member 12,4.409 fold and 4.3 fold
same,STAT4 Expr Fold Change,[2]; gene signal transducer and activator of transcription 4,−2.315 fold
same,SPRR2G Fold Change,[2]; gene small proline rich protein 2G,7.539 fold
same,SPRR4 Fold Change,[2]; gene small proline rich protein 4,2.263 fold
same,SBSN Fold Change,[2]; gene suprabasin,3.488 fold and 3.4 fold
same,TLR3 Expr Fold Change,[2]; gene toll like receptor 3,−2.566 fold
same,TRPV3 Fold Change,[2]; gene transient receptor potential cation channel subfamily V member 3,2.32 fold and 2.382 fold
same,UBA7 Expr Fold Change,[2]; gene ubiquitin like modifier activating enzyme 7,−1.651 fold
same,VEGFA Fold Change,[2]; gene vascular endothelial growth factor A,1.2 fold
same,mir-23 Expr Fold Change,[2]; microRNA 23a,2.983 fold
same,mir-224 Expr Fold Change,[2]; microRNA 224,4.867 fold
